The results in this text go back to patent US20070270428A1, “Use of Cyclooxygenase-2 Inhibitors for the Treatment of Depressive Disorders” (priority 2003, published 2007).

One test concerns male Sprague-Dawley rats. In words: Chronic Inescapable Shock in Rats (escape test). The test is classed as in vivo, rat. As to conditions: stressed rats. The protocol:
The Chronic Inescapable Shock in Rats model, developed from the learned Helplessness paradigm, was used to investigate the acquisition of shock-induced escape deficits in rats in the absence and presence of SSRI±COX-2 inhibitors. The test was performed over a period of seven days as an adaptation of the methodology used previously by Gambarana, C., […]. & De Montis, M. G. (1995). Experiments were carried out on male Sprague-Dawley rats (Charles River, Como, Italy). Animals were kept in a controlled environment with a constant temperature of 22° C. and a 12 hour light/12 hour inverted dark cycle, with free access to food and water. The procedures used in this study for all animals were in strict accordance with the European legislation on the use and care of laboratory animals (CEE N° 86/609) and experiments were performed under red light. The experimental procedure consists of a pre-test session (exposure to an unavoidable stress of minimum intensity and duration required to induce a reliable behavioural modification) followed 24 hours later by an escape test (for the assessment of the induced behavioural modification). […]

The target of the next test is T1, human COX-1 (Homo sapiens, UniProt P23219).
T1 construct: expressed in transfected cells; host or cells: COS cells (stably transfected)
T1 sequence (P23219 24-599): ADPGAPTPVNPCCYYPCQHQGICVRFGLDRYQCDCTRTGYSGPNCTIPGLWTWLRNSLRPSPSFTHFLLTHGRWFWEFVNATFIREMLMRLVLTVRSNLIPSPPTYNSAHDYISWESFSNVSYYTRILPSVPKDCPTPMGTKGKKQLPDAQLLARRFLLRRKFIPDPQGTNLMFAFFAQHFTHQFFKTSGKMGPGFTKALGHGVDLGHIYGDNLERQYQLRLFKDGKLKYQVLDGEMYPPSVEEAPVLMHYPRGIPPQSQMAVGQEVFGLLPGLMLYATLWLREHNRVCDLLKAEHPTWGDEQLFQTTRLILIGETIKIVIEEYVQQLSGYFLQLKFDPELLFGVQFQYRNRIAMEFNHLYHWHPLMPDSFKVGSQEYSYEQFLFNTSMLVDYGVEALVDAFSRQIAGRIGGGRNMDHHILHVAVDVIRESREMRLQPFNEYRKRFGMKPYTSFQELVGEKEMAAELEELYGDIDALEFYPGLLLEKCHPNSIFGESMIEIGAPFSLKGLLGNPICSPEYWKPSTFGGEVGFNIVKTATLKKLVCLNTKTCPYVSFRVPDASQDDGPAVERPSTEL
Put plainly: Inhibition of human COX-1 in stably transfected COS cells (PGE2 release). Particulars: COS cells stably transfected with human COX-1. The test is classed as cell-based.

A further test deals with T2, human COX-2 (Homo sapiens, UniProt P35354).
T2 construct: expressed in transfected cells; host or cells: COS cells (stably transfected)
T2 sequence (P35354 18-604): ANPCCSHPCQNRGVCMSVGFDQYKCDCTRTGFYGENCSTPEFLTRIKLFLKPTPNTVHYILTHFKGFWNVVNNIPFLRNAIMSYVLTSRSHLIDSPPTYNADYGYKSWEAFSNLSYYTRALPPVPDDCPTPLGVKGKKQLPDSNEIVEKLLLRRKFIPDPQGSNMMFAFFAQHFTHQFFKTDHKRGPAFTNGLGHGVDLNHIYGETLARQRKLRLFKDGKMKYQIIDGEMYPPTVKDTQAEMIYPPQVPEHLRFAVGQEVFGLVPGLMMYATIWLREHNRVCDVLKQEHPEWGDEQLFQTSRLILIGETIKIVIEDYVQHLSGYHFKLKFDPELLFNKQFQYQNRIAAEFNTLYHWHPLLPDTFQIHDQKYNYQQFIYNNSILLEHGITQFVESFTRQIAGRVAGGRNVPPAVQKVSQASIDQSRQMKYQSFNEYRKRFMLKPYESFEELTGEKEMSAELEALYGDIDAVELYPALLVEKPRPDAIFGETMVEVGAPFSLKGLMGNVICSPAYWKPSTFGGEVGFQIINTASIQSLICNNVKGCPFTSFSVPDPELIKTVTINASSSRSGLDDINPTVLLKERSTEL
Put plainly: Inhibition of human COX-2 in stably transfected COS cells (PGE2 release). The test is classed as cell-based. Particulars: COS cells stably transfected with human COX-2.

For a further test, the target named is T3, microsomal h-COX2 (Homo sapiens, UniProt P35354).
T3 construct: made in house; host or cells: baculovirus infected SF9 cells (microsomal preparation)
T3 sequence (P35354 18-604): T2 sequence (P35354 18-604)
Put plainly: Microsomal assay, COX-2 (microsomal preparation from baculovirus infected SF9 cells). The class given is biochemical.

[1] abbreviates: microsomal assay, PGE2 by EIA, read-out: COX-2: IC50.

Read-outs that look alike come from different tables or passages of the source.

Description for human COX-1: (§1) 24 Hours prior to experiment, COS cells were transferred from the 175 cm^2 flasks in which they were grown, onto 24-well cell culture plates using the following procedure. The incubation medium
(Dulbecco's modified eagles medium (DMEM) supplemented with heat-inactivated foetal calf serum (10% v/v), penicillin (100 lU/ml), streptomycin (100 μg/ml) and geneticin (600 μg/ml)) was removed from a flask of confluent cells (1 flask at confluency contains approximately 1×10^7 cells). 10 ml of phosphate buffered saline (PBS) was added to the flask to wash the cells. Having discarded the PBS, cells were then rinsed in 10 ml trypsin for 20 seconds, after which the trypsin was removed and the flask placed in an incubator (37°) for 1-2 minutes until cells became detached from the flask. The flask was then removed from the incubator and cells resuspended in 10 ml of fresh incubation medium. The contents of the flask was transferred to a 250 ml sterile container and the volume of incubation medium subsequently made up to 100 ml. […] The plates were then placed in an incubator (37° C., 95% air/5% CO2) overnight. If more than 1 flask of cells were required, the cells from the individual flasks were combined before being dispensed into the 24-well plates.
Following the overnight incubation, the incubation medium was completely removed from the 24-well cell culture plates and replaced with 250 μl fresh DMEM (37° C.). The test compounds were made up to 250× the required test concentration in DMSO and were added to the wells in a volume of 1 μl. Plates were then mixed gently by swirling and then placed in an incubator for 1 hour (37° C., 95% air/5% CO2). Following the incubation period, 10 μl of arachidonic acid (750 μM) was added to each well to give a final arachidonic acid concentration of 30 μM. Plates were then incubated for a further 15 minutes, after which the incubation medium was removed from each well of the plates and stored at −20° C., prior to determination of prostaglandin E2 (PGE2) levels using enzyme immunoassay. The inhibitory potency of the test compound was expressed as an IC50 value, which is defined as the concentration of the compound required to inhibit the PGE2 release from the cells by 50%. The selectivity ratio of inhibition of COX-1 versus COX-2 was calculated by comparing respective IC50 values.
Description for human COX-2: as §1
(Dulbecco's modified eagles medium (DMEM) supplemented with heat-inactivated foetal calf serum (10% v/v), penicillin (100 lU/ml), streptomycin (100 μg/ml) and geneticin (600 μg/ml)) was removed from a flask of confluent cells (1 flask at confluency contains approximately 1×10^7 cells). 10 ml of phosphate buffered saline (PBS) was added to the flask to wash the cells. Having discarded the PBS, cells were then rinsed in 10 ml trypsin for 20 seconds, after which the trypsin was removed and the flask placed in an incubator (37°) for 1-2 minutes until cells became detached from the flask. The flask was then removed from the incubator and cells resuspended in 10 ml of fresh incubation medium. The contents of the flask was transferred to a 250 ml sterile container and the volume of incubation medium subsequently made up to 100 ml. […] If more than 1 flask of cells were required, the cells from the individual flasks were combined before being dispensed into the 24-well plates.
Following the overnight incubation, the incubation medium was completely removed from the 24-well cell culture plates and replaced with 250 μl fresh DMEM (37° C.). […]
Description for microsomal h-COX2: Inhibitory activity against microsomal h-COX2 was assessed against a microsomal preparation from baculovirus infected SF9 cells. An aliquot of microsomal preparation was thawed slowly on ice and a 1/40,000 dilution prepared from it into the assay buffer (sterile water, degassed with argon containing 100 mM HEPES (pH 7.4), 10 mM EDTA (pH7.4), 1 mM phenol, 1 mM reduced glutathione, 20 mg/ml gelatin and 0.001 mM Hematin). Once diluted the enzyme solution was then sonicated for 5 seconds (Branson sonicator, setting 4, 1 cm tip) to ensure a homogeneous suspension. […] Plates were then mixed and incubated at room temperature for 1 hour. Following the incubation period, 40 μl of 0.5 μM arachidonic acid was added to each well to give a final concentration of 0.1 μM. Plates were then mixed and incubated for exactly 10 minutes (room temperature) prior to addition of 25 μl 1M HCl (hydrochloric acid) to each well to stop the reaction. 25 μl of 1M NaOH (sodium hydroxide) was then added to each well to neutralise the solution prior to determination of PGE2 levels by enzyme immunoassay (EIA).

For `Fc1ccc([C@@H]2CCNC[C@H]2COc2ccc3c(c2)OCO3)cc1` (relative stereo) [PAROXETINE, trans-(−)-3-[(1,3-benzodioxol-5-yloxy)methyl]-4-(4-fluorophenyl)piperidine], the “MEAN Number of escapes” value in the test on male Sprague-Dawley rats (7 days of treatment p.o., escapes out of 30 consecutive trials on day 8) is 3.8. Further, the “reversal of chronic escape deficit” value with male Sprague-Dawley rats (after 7 days of treatment, day 8) is on record as “lack of reversal of chronic inescapable shock”.

A word on the IC50: it is the concentration that inhibits the measured activity by half. With `CS(=O)(=O)c1ccc(-c2c(-c3ccc(F)cc3)nn3nc(OC(F)F)ccc23)cc1` [2.1(v), 6-Difluoromethoxy-2-(4-fluoro-phenyl)-3-(4-methanesulfonyl-phenyl)-pyrazolo[1,5-b]pyridazine], the IC50 against human COX-1 is more than 100 µM. For the compound `COc1ccc(-c2nn3ncccc3c2-c2ccc(S(C)(=O)=O)cc2)cc1` [2.2(ii), 3-(4-Methanesulfonyl-phenyl)-2-(4-methoxy-phenyl)-pyrazolo[1,5-b]pyridazine], at human COX-2, the IC50 is less than 0.01 µM. Regarding `CCOc1ccc(-c2nn3ncccc3c2-c2ccc(S(C)(=O)=O)cc2)cc1` [2.3(ii), 2-(4-Ethoxy-phenyl)-3-(4-methanesulfonyl-phenyl)-pyrazolol[5-b]pyridazine], on human COX-1, the IC50 is more than 100 µM. Take `CS(=O)(=O)c1ccc(-c2c(-c3cccc(F)c3)nn3nc(OC(F)F)ccc23)cc1` [2.7(viii), 6-Difluoromethoxy-2-(3-fluoro-phenyl)-3-(4-methanesulfonyl-phenyl)-pyrazolo[1,5-b]pyridazine]: on human COX-1, the IC50 was more than 55.2 µM. Consider `CS(=O)(=O)c1ccc(-c2c(-c3ccc(OC(F)F)cc3)nn3ncccc23)cc1` [Compound 2.5, 2-(4-Difluoromethoxy-phenyl)-3-(4-methanesulfonyl-phenyl)-pyrazolo[1,5-b]pyridazine], for which the IC50 at human COX-1 was more than 100 µM.

As for `Cc1ccc(Oc2nc(-c3ccc(S(C)(=O)=O)cc3)cc(C(F)(F)F)n2)cc1` [Example 1.6], the IC50 at microsomal h-COX2 (setting [1]) is less than 0.01 µM.

Regarding `CS(=O)(=O)c1ccc(-c2cc(C(F)(F)F)nc(Oc3cncc(Cl)c3)n2)cc1` [Example 1.7], the IC50 at microsomal h-COX2 (setting [1]) was less than 0.01 µM. On to `CS(=O)(=O)c1ccc(-c2cc(C(F)(F)F)cc(OCc3ccccn3)n2)cc1` [Example 3.2, 2-[4-(methylsulfonyl)phenyl]-6-[(2-pyridinylmethyl)oxy]-4-(trifluoromethyl)pyridine], for which the IC50 on microsomal h-COX2 (stated in text after the microsomal assay table, read-out: IC50 values for inhibition of COX-2) was not above 0.5 µM.
